# Assays:
# [1] = target: T1, MHC class I/SIINFEKL complex on DC2.4 (Mus musculus, UniProt P01901); test: SIINFEKL binding to DC2.4, flow cytometry with 25-D1.16 antibody; format: cell-based, murine
# T1 construct: DC2.4 are a C57Bl/6 lineage murine cell line and as such they express MHC class I H-2Kb and H-2Db; endogenous in cells; host or cells: DC2.4 (murine dendritic cell line, from Dr. Kenneth Rock)
# T1 sequence (P01901 22-369): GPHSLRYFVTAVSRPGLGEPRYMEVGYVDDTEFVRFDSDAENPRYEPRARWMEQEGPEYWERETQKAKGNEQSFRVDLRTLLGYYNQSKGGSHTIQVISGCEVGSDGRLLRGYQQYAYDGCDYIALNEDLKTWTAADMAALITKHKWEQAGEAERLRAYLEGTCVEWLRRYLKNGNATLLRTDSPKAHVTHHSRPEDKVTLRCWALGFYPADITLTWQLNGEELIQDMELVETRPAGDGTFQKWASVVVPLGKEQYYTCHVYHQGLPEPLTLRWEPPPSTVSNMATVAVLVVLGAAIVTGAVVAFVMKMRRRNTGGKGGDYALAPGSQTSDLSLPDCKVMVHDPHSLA
# T1 sequence (P01887 21-119 partner): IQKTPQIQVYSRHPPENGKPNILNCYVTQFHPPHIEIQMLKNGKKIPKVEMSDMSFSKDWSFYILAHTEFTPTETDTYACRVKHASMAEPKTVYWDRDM
# Method: To detect binding of peptides to MHC class I H2Kb molecules on various murine cells, the cells were cultured as previously described and treated for various times as indicated in results and figure legends. Cells were centrifuged and washed using cold FACS buffer (DPBS with 5% FBS, 2 mM EDTA, 0.1% sodium azide). Cells were blocked using Fc block (bioLegend™; cat. no. 101320) for 10 min to 15 min to inhibit non-specific binding, followed by staining with fluorophore-conjugated antibody PE-labeled anti-MHC I/SIINFEKL (clone 25-D1.16; Invitrogen™, Thermo Fisher Scientific Inc., Waltham, MA; cat. no. 12-5743-82), for 30 min at 4° C. After washing, the cells were subjected to flow cytometric analysis with the Attune NxT Flow Cytometer (Invitrogen). Cells were gated based on live single-cell populations and positives were assessed using isotype controls and fluor-minus-one analysis when needed. Data were analyzed using the Attune NxT software or FlowJo versions 10.7 and 10.8.
# To evaluate the potential of BzFβ to enhance peptide loading under conditions used to prepare DC vaccines, 1×10^6 DC2.4 cells were pretreated with 50 μg/mL BzFβ for 1 h in a total volume of 200 μL OptiMEM, then pulsed for 1 h with concentrations of SIINFEKL (1-10 μg/mL) often used for the in vitro production of DC vaccines. The cells were then stained for 30 min in 200 μL HBSS/2% FCS containing 0.4 μg PE-labeled MHC class I/SIINFEKL specific antibody, 25-D1.16.
# By using an MHC class I H-2K^b specific antibody, a relative comparison of the surface MHC class I was measured before and after BzFβ treatment of DC2.4 and IMG cells. These cells were treated with 25 μg/mL BzFβ for 0-4 h. Cells were centrifuged and washed using cold FACS buffer (DPBS with 5% FBS, 2 mM EDTA, 0.1% sodium azide). […] Cells were gated based on live single-cell populations and positives were assessed using isotype controls and fluor-minus-one analysis when needed. Data were analyzed using the Attune NxT software or FlowJo versions 10.7 and 10.8.
# Cultured cells were treated for various times as indicated in results and figure legends. […] Cells were gated based on live single-cell populations and positives were assessed using isotype controls and fluor-minus-one analysis when needed. Data were analyzed using the Attune NxT software or FlowJo versions 10.7 and 10.8.
# [2] = In vivo toxicity after gavage, iv or im injection
# Method: Six- to ten-week-old male and female C57BL/6NCrl mice (cat. no. 027, Charles River Laboratories, Wilmington MA) were used for all animal studies. The mice were maintained in accord with the NIH Guide for the Care and Use of Laboratory Animals. Experimental procedures were performed in accord with research protocols approved by the Tampa Bay Research Institute's Institutional Animal Care and Use Committee. Mice were maintained in an INOVIVE individually ventilated cage system with 3 mice per cage containing 100% virgin wood pulp bedding (Harlan Teklad™, Harlan Sprague Dawley Inc., Indianapolis, IA; cat. no. 7099). Water and food (Harland Teklad™; cat. no. 8640) were available ad libitum. The mice were maintained on a cycle of 12 h of light and 12 h of dark in an environment with a temperature of 74-76° […]. and 40-60% humidity. All cages underwent 40 air changes hourly in the negative pressure mode, in accordance with manufacturer's recommendations. Both the intake and exhaust air from the system were filtered through HEPA filters to maintain a clean environment. […]
# Mice were gavaged with BzFβ at doses ranging from 25 mg/kg body to 100 mg/kg body weight, injected intravenously (iv) with 50 μg BzFβ or injected intramuscularly with BzFβ at 25 to 40 mg/kg body weight. For two weeks post-treatment, water intake and weight were monitored. […]
structure (smiles),measurement,setting,value
"O=C(O)/C=C/c1ccc2occc2c1 [BzFβ, (2E)-3-(1-benzofuran-5-yl)prop-2-enoic acid]",peptide binding under DC vaccine conditions,"[1]; 50 μg/mL BzFβ 1 h, then 1 h SIINFEKL 1-10 μg/mL",significant enhancement of peptide binding
same,SIINFEKL peptide binding to DC2.4,"[1]; 25 or 50 μg/mL, up to 24 h",significantly enhance peptide binding
same,peptide detected per cell,"[1]; 2 h pretreatment 50 μg/mL BzFβ, then 1 h 1, 5 or 10 μg/mL SIINFEKL",significantly more peptide was detected per cell
same,binding of SIINFEKL to surface MHC class I,"[1]; DC2.4, 25 μg/mL BzFβ 0-4 h",able to enhance the binding of SIINFEKL
same,in vivo toxicity,[2]; at the doses tested,non-toxic
same,body and organ weights,"[2]; gavage 25-100 mg/kg, iv 50 μg, im 25-40 mg/kg, two weeks",no differences were measured

# From patent US20250381165A1, “Method of Use for Benzofuran Compounds” (Tampa Bay Research Institute, Inc., priority 2024, published 2025)
